Earlier results, collected in patent US12448600B2, “Extraction of antimethanogenic compounds” (priority 2023, dated 2025).
Read-outs that look alike come from different tables or passages of the source. Blank lines part the entries; values can stand above or below the compound they belong to.

Legend:
[1] = system: CH4 production
[2] = pure form
[3] = 20° C., cell prints mmHg under a kPa head

Structure (SMILES): O=[N+]([O-])OCCCO [3-NOP, 3-nitrooxypropanol]
Reduction in CH4 production ([1]; cows, twice daily dosing, 80 mg per kg dry matter intake, 3 hours post-administration): 29% | Reduction in methane emissions ([1]; single dose): < 30% | Time the reduction in methane emissions is maintained ([1]; single dose): 3 to 4 h

Structure (SMILES): ClC(Cl)Br [Bromodichloromethane]
Vapor pressure ([2]; 20° C.): 6.6 kPa

Structure (SMILES): BrC(Br)Br [Bromoform]
Vapor pressure ([2]; 20° C.): 0.67 kPa

Structure (SMILES): ClC(Cl)Cl [Chloroform]
Vapor pressure [2, 3]: 212 mmHg

Structure (SMILES): BrCBr [Dibromomethane]
Vapor pressure ([2]; 20° C.): 4.7 kPa

Structure (SMILES): FC(F)F [Fluoroform]
Vapor pressure ([2]; 20° C.): 4000 kPa

Vapor pressure [2, 3]: 0.04 mmHg
Structure (SMILES): IC(I)I [Iodoform]

Structure (SMILES): CBr [Methyl bromide]
Vapor pressure [2, 3]: 1893 mmHg

Vapor pressure ([2]; at 21° C.): 3300 at 21 °C kPa
Structure (SMILES): CF [Methyl fluoride]

Structure (SMILES): CI [Methyl iodide]
Vapor pressure ([2]; 20° C.): 50 kPa

Structure (SMILES): ClC=C(Cl)Cl [Trichlorethylene]
Vapor pressure ([2]; 20° C.): 7.8 kPa
